Experimental data from patent publication US5688787A, “Substituted β-lactam compounds useful as hypochlesterolemic agents and processes for the preparation thereof” (priority 1996, dated 1997).
Like-named read-outs stand apart in the source and are kept apart here.

System: Hyperlipidemic Hamster
Assay: In Vivo Assay of Hypolipidemic Agents Using the Hyperlipidemic Hamster
Conditions: Mesocricetus auratus, po, 168 h; for change in vivo at 5 mg/kg: 5 mg/kg once daily oral; for change in vivo at 10 mg/kg: 10 mg/kg once daily oral; for change in vivo at 3 mg/kg: 3 mg/kg once daily oral; for change in vivo at 40 mg/kg: 40 mg/kg once daily oral
Description: In Vivo Assay of Hypolipidemic Agents Using the Hyperlipidemic Hamster
Hamsters are separated into groups of six and given a controlled cholesterol diet (Purina Chow #5001 containing 0.5% cholesterol) for seven days. Diet consumption is monitored to determine dietary cholesterol exposure in the face of test compounds. The animals are dosed with the test compound once daily beginning with the initiation of diet. Dosing is by oral gavage of 0.2mL of corn oil alone (control group) or solution (or suspension) of test compound in corn oil. All animals roodbund or in poor physical condition are euthanized. After seven days, the animals are anesthetized by IM injection of ketamine and sacrificed by decapitation. Blood is collected into vacutainer tubes containing EDTA for plasma lipid analysis and the liver excised for tissue lipid analysis. Data is reported as percent reduction of lipid versus control.
Using the test procedures described above, the following in vitro and in vivo data were obtained for the preferred compounds, which are referred to in the following table by the corresponding example numbers. For the in vitro ACAT data, negative percent inhibition denotes apparent stimulation,while positive numbers denote inhibition. For the in vivo results, data is reported as percent change versus control, therefore, negative numbers indicate a positive lipid-lowering effect.

[1] = 50 mg/kg once daily oral, 7 days, percent change versus control, negative = lowering, read-out: % Reduction (in vivo) Cholest. Esters
[2] = 50 mg/kg once daily oral, 7 days, percent change versus control, negative = lowering, read-out: % Reduction (in vivo) Serum Cholest.
[3] = read-out: % Reduction (in vivo) Cholest. Esters
[4] = read-out: % Reduction (in vivo) Serum Cholest.
[5] = 7 days, percent change versus control, negative = lowering, read-out: % Reduction (in vivo) Cholest. Esters
[6] = 7 days, percent change versus control, negative = lowering, read-out: % Reduction (in vivo) Serum Cholest.

In the case of `COc1ccc([C@@H]2[C@@H](OCCc3ccccc3)C(=O)N2c2ccc(OC)cc2)cc1` (relative stereo) [Example 5Z], the change in vivo at 50 mg/kg [1] was 0% and the change in vivo at 50 mg/kg [2] was -16%.

Compound `COc1ccc(N2C(=O)[C@H](CCCc3ccccc3)[C@@H]2c2ccc(-c3ccccc3)cc2)cc1` (relative stereo) [Example 1BT] has a change in vivo at 50 mg/kg [1] of 0% and a change in vivo at 50 mg/kg [2] of 0%.

With `COc1ccc([C@@H]2[C@@H]([C@H]3C[C@H]3Cc3ccccc3)C(=O)N2c2ccc(OC)cc2)cc1` (relative stereo) [Example 36] the change in vivo at 50 mg/kg [1] was -94% and the change in vivo at 50 mg/kg [2] was -53%.

For `CCCOc1ccc([C@@H]2[C@@H](CCCc3ccccc3)C(=O)N2c2ccc(OC)cc2)cc1` (relative stereo) [Example 7P], the change in vivo at 50 mg/kg [1] was -95% and the change in vivo at 50 mg/kg [2] was -40%.

`COC(=O)CCC(=O)Oc1ccc(C2C(CCCc3ccccc3)C(=O)N2c2ccc(OC)cc2)cc1` (stereo not shown) [Example 34] was tested, and the change in vivo at 50 mg/kg [1] was -94% and the change in vivo at 50 mg/kg [2] was -39%.

In the case of `COc1ccc([C@@H]2[C@@H](CCCCCCc3ccccc3)C(=O)N2c2ccc(OC)cc2)cc1` (relative stereo) [Example 5Y], the change in vivo at 50 mg/kg [1] was 0% and the change in vivo at 50 mg/kg [2] was -29%.

`COc1ccc([C@H]2[C@@H](CCCc3ccccc3)C(=O)N2c2ccc(OC)cc2)cc1` [Example 2A] was tested, and the change in vivo at 50 mg/kg [1] was 0% and the change in vivo at 50 mg/kg [2] was 0%.

With `COc1ccc([C@@H]2[C@H](NC(=O)N(C)c3ccccc3)C(=O)N2c2ccccc2)cc1` (relative stereo) [Example 12D] the change in vivo at 50 mg/kg [1] was 0% and the change in vivo at 50 mg/kg [2] was 0%.

With `COc1ccc(N2C(=O)[C@H](CCCc3ccccc3)[C@H]2c2ccc(OC)c(C)c2)cc1` (relative stereo) [Example 7Q] the change in vivo at 50 mg/kg [1] was 0% and the change in vivo at 50 mg/kg [2] was -16%.

`COc1ccc(N2C(=O)[C@H](CCCc3ccccc3)[C@H]2c2ccc(N(S(C)(=O)=O)S(C)(=O)=O)cc2)cc1` (relative stereo) [Example 25A] showed a change in vivo at 50 mg/kg [1] of 0% and a change in vivo at 50 mg/kg [2] of -13%.

With `COc1ccc([C@H]2[C@@H](CCCc3ccccc3)C(=O)N2c2ccc(O[Si](C)(C)C(C)(C)C)cc2)cc1` (relative stereo) [Example 1CB] the change in vivo at 50 mg/kg [3] was 0% and the change in vivo at 50 mg/kg [4] was 0%.

Compound `COc1ccc([C@@H]2[C@H](CCCc3ccccc3)C(=O)N2c2ccc(OC)cc2)cc1` [Example 2] has a change in vivo at 5 mg/kg [5] of -37%, a change in vivo at 5 mg/kg [6] of -15% and a change in vivo at 10 mg/kg [5] of -69%. It also gave a change in vivo at 10 mg/kg [6] of -28%.

`COc1ccc(N2C(=O)[C@H](CCCc3ccccc3)[C@@H]2c2ccc(C3OCCO3)cc2)cc1` (relative stereo) [Example 31] was tested, and the change in vivo at 50 mg/kg [1] was -52% and the change in vivo at 50 mg/kg [2] was -19%.

In the case of `COc1ccc(N2C(=O)[C@H](CCCc3ccccc3)[C@H]2c2ccc(OC)cc2OC)cc1` (relative stereo) [Example 7X], the change in vivo at 50 mg/kg [1] was -78% and the change in vivo at 50 mg/kg [2] was -26%.

`CCOc1ccc([C@H]2[C@@H](CCCc3ccccc3)C(=O)N2c2ccccc2)cc1` (relative stereo) [Example 1BY] gave a change in vivo at 50 mg/kg [1] of -72% and a change in vivo at 50 mg/kg [2] of -18%.

Compound `CCOc1ccc(N2C(=O)[C@H](CCCc3ccccc3)[C@H]2c2ccc(OC)cc2)cc1` (relative stereo) [Example 5H] has a change in vivo at 50 mg/kg [1] of -96% and a change in vivo at 50 mg/kg [2] of -57%.

For `COc1ccc([C@@H]2[C@@H](CCCc3ccccc3)C(=O)N2c2ccc(OC(F)(F)F)cc2)cc1` (relative stereo) [Example 1AN], the change in vivo at 50 mg/kg [1] was -85% and the change in vivo at 50 mg/kg [2] was -34%.

For `COc1ccc(C(=O)[C@@H]2[C@@H](CCCc3ccccc3)C(=O)N2c2ccc(OC)cc2)cc1` (relative stereo) [Example 7V], the change in vivo at 50 mg/kg [1] was 0% and the change in vivo at 50 mg/kg [2] was 0%.

With `COc1ccc([C@@H]2[C@@H](CCCc3ccccc3)C(=O)N2c2ccc3c(c2)CCC3)cc1` (relative stereo) [Example 7AR] the change in vivo at 50 mg/kg [1] was -88% and the change in vivo at 50 mg/kg [2] was -32%.

`CCCOc1ccc([C@H]2[C@@H](CCCc3ccccc3)C(=O)N2c2ccc(OC)cc2)cc1` (relative stereo) [Example 1AZ] gave a change in vivo at 50 mg/kg [1] of -91% and a change in vivo at 50 mg/kg [2] of -37%.

In the case of `COc1ccc(N2C(=O)[C@H](CCCc3ccccc3)[C@H]2c2ccc(NC(C)=O)cc2)cc1` (relative stereo) [Example 26], the change in vivo at 50 mg/kg [1] was -26% and the change in vivo at 50 mg/kg [2] was -4%.

With `COCc1ccc([C@H]2[C@@H](CCCc3ccccc3)C(=O)N2c2ccc(OC)cc2)cc1` (relative stereo) [Example 21A] the change in vivo at 50 mg/kg [1] was -25% and the change in vivo at 50 mg/kg [2] was 0%.

`COc1ccc([C@@H]2[C@@H](CCCc3ccccc3)C(=O)N2c2ccc(SC)cc2)cc1` (relative stereo) [Example 5I] was tested, and the change in vivo at 50 mg/kg [1] was -70% and the change in vivo at 50 mg/kg [2] was -26%.

For `CCOc1ccc([C@@H]2[C@@H](CCCc3ccccc3)C(=O)N2c2ccccc2)cc1` (relative stereo) [Example 7Y], the change in vivo at 3 mg/kg [5] was -55%, the change in vivo at 3 mg/kg [6] was -22% and the change in vivo at 10 mg/kg [5] was -79%. It also gave a change in vivo at 10 mg/kg [6] of -27%, a change in vivo at 50 mg/kg [1] of -94% and a change in vivo at 50 mg/kg [2] of -53%.

Compound `COc1ccc([C@H]2[C@@H](CCCc3ccccc3)C(=O)N2c2ccc(Cl)cc2)cc1` (relative stereo) [Example 1AO] has a change in vivo at 50 mg/kg [1] of -78% and a change in vivo at 50 mg/kg [2] of -33%.

For `COc1ccc([C@H]2[C@@H](CCCc3ccccc3)C(=O)N2c2ccc(Oc3ccccc3)cc2)cc1` (relative stereo) [Example 1AQ], the change in vivo at 50 mg/kg [1] was -22% and the change in vivo at 50 mg/kg [2] was -20%.

`COc1ccc(N2C(=O)[C@H](CCCc3ccccc3)[C@@H]2c2ccc(S)cc2)cc1` (relative stereo) [Example 28] showed a change in vivo at 50 mg/kg [1] of 0% and a change in vivo at 50 mg/kg [2] of -19%.

For `COc1ccc([C@@H]2[C@H](NCCc3ccccc3)C(=O)N2c2ccccc2)cc1` (relative stereo) [Example 14], the change in vivo at 50 mg/kg [1] was -87% and the change in vivo at 50 mg/kg [2] was 30%.

Compound `COc1ccc(N2C(=O)[C@H](CCCc3ccccc3)[C@H]2c2nccn2COCC[Si](C)(C)C)cc1` (relative stereo) [Example 1AV] has a change in vivo at 50 mg/kg [3] of 0% and a change in vivo at 50 mg/kg [4] of 15%.

`COc1ccc(N2C(=O)[C@H](CCCc3ccccc3)[C@H]2c2ccc(O)c(I)c2)cc1` (relative stereo) [Example 32] showed a change in vivo at 50 mg/kg [1] of 0% and a change in vivo at 50 mg/kg [2] of 0%.

For `CON=Cc1ccc([C@H]2[C@@H](CCCc3ccccc3)C(=O)N2c2ccc(OC)cc2)cc1` (relative stereo) [Example 27], the change in vivo at 50 mg/kg [1] was -36% and the change in vivo at 50 mg/kg [2] was -12%.

With `COc1ccc([C@@H]2[C@@H](CCCc3ccccc3)C(=O)N2c2cccnc2)cc1` (relative stereo) [Example 1AM] the change in vivo at 50 mg/kg [1] was -29% and the change in vivo at 50 mg/kg [2] was -12%.

For `COc1ccc([C@@H]2[C@@H](CCCc3ccccc3)C(=O)N2c2cnc3ccccc3c2)cc1` (relative stereo) [Example 7AT], the change in vivo at 50 mg/kg [1] was -32% and the change in vivo at 50 mg/kg [2] was -10%.

`COc1ccc(N2C(=O)[C@H](CCCc3ccccc3)[C@H]2c2ccc(CN3CCN(C)CC3)cc2)cc1` (relative stereo) [Example 19C] gave a change in vivo at 50 mg/kg [1] of -46% and a change in vivo at 50 mg/kg [2] of -9%.

For `COc1ccc([C@@H]2[C@@H](CCCc3ccccc3)C(=O)N2c2ccc(OC)cc2)cc1` [Example 9, (3R,4S)-1,4-bis-(4-methoxyphenyl)-3-(3-phenylpropyl)-2-azetidinone], the change in vivo at 3 mg/kg [5] was -68%, the change in vivo at 3 mg/kg [6] was -25% and the change in vivo at 5 mg/kg [5] was -66%. The change in vivo at 5 mg/kg [6] was -21.5%, the change in vivo at 10 mg/kg [5] was -93% and the change in vivo at 10 mg/kg [6] was -43%.

In the case of `COc1ccc(C2C(CCCc3ccccc3)C(=O)N2c2ccc(OC)cc2)cc1` (stereo not shown) [Example 1], the change in vivo at 5 mg/kg [5] was 0%, the change in vivo at 5 mg/kg [6] was 0% and the change in vivo at 10 mg/kg [5] was -55%. The change in vivo at 10 mg/kg [6] was -17%, the change in vivo at 50 mg/kg [1] was -95% and the change in vivo at 50 mg/kg [2] was -45%.

`COc1ccc([C@@H]2[C@H](NCC(c3ccccc3)c3ccccc3)C(=O)N2c2ccccc2)cc1` (relative stereo) [Example 14B] was tested, and the change in vivo at 50 mg/kg [1] was 0% and the change in vivo at 50 mg/kg [2] was 0%.

With `COc1ccc([C@@H]2[C@@H](CCCc3ccccc3)C(=O)N2c2ccccc2)cc1` (relative stereo) [Example 7] the change in vivo at 3 mg/kg [5] was -50%, the change in vivo at 3 mg/kg [6] was -30% and the change in vivo at 10 mg/kg [5] was -89.5%. The change in vivo at 10 mg/kg [6] was -41%, the change in vivo at 40 mg/kg [5] was -95% and the change in vivo at 40 mg/kg [6] was -49%.
